# Measurements reported in paper PMC6201879, “N-substituted phenylbenzamides of the niclosamide chemotype attenuate obesity related changes in high fat diet fed mice” (PLoS ONE, 2018).
# Values joined by “and” are separate entries in the source; they are usually repeats but may differ in a detail not shown here. Equal entries are not always repeated. Where two headings read alike, the source gives them in different places.
# Assays:
# [1] = Metabolic stability in human liver microsomes; type: in vitro ADME
# Method: (§1) Three experiments were performed with 1) 0.5mg/ml microsomes and 1mM NADPH, 2) 0.5mg/ml microsomes without NADPH and 3) 0.5mg/ml heat inactivated microsomes without NADPH in 100mM phosphate buffer, containing 5mM magnesium chloride. […] At the indicated time points, 50μl samples were removed and stopped by addition of 4 volumes of cold acetonitrile with internal standards, 100nM alprazolam, 200nM labetalol and 2μM ketoprofen. The samples were centrifuged at 3,220 g for 40 minutes and aliquots of 100μl were subsequently diluted with 100μl of ultra-pure water and analyzed by LC/MS/MS using a (Shimadzu corporation) LC system coupled to a Shimadzu Triple Quad 5500 mass spectrometer with an ESI interface. The LC system used a Waters XSelect HSS T3 C18, 2.5μm, 2.1 x 50 mm column eluted with one of two methods using mobile phases A (water, 0.1% formic acid) and B (acetonitrile, 0.1% formic acid). […] The Shimadzu Triple Quad 5500 MS was operated with the following parameters: Ion source: Turbo spray; Ionization mode: ESI; Scan type: MRM; Collision gas: 10 L/min; Curtain gas: 30 L/min; Nebulize gas: 50 L/min; Auxiliary gas: 50 L/min; Temperature: 500°C; Ionspray voltage: +5500 V (positive MRM). All experiments were performed in duplicate. Data were analyzed using Microsoft excel, and peak areas were determined from extracted ion chromatograms.
# [2] = system: Salmonella typhimurium TA98; assay: Ames assay, strain TA98; details: for Mean Revertant Colony Counts TA98 SP9+: with S9; for Mean Revertant Colony Counts TA98 S9-: without S9
# [3] = system: PH5CH8 liver cells; assay: High-throughput hepatic de novo lipogenesis (DNL) assay, high content imaging of steatotic phenotype; type: cell-based, human; details: for IC50: Homo sapiens
# [4] = Pharmacokinetic profile in Sprague Dawley rats (IV and PO); type: in vivo; details: Mean + SD (n = 3)
# Method: To evaluate the pharmacokinetic profile by oral (PO) and intravenous (IV) administration routes we used 6 to 8-week old Sprague Dawley rats weighing approximately 200-330g (n = 3 per study group). Compounds were administered at 1mg/kg in 5% Cremophor EL and 20% PEG400 in water for IV and 5mg/kg in PBS for PO. All dose formulation was performed at room temperature. Animals were fasted overnight prior to dosing and were re-fed approximately 4 hours after dosing. For PO, 0.2ml of blood was collected pre- and 0.5, 1, 2, 4 8 12 and 24-hours after drug delivery and transferred to EDTA-K2 BD Vacutainer plastic blood collection tubes. IV samples were collected pre-injection and 0.08, 0.25, 0.5, 1, 2, 4, 8, 12, 24-hours post injection. Blood samples were centrifuged at 2,000 g for 5 minutes at 4°C to obtain plasma. Plasma samples were stored at -75±15°C prior to analysis and then thawed and analyzed by LC-MS/MS method and pharmacokinetic calculations were performed using WinNolin (Phoenix, version 6.4). For IV administration: T1/2, C0, AUClast, AUCinf, MRT, Cl, Vss, and number of points for regression were determined. For PO administration: T1/2, Cmax, Tmax, AUCinf, AUClast, F(0-∞) %, and number of points for regression were determined. Data are reported as mean and standard deviation.
# [5] = Metabolic stability in mouse liver microsomes; type: in vitro ADME; details: 60 min
# Method: as §1
# [6] = system: Salmonella typhimurium TA100; details: for Mean Revertant Colony Counts TA-100 SP9+: with S9; for Mean Revertant Colony Counts TA-100 S9-: without S9
# [7] = 0.5mg/ml microsomes and 1mM NADPH
# [8] = 0.5mg/ml microsomes without NADPH
# [9] = heat inactivated microsomes without NADPH
compound,measurement,setting,value
"CC(C)(C)c1ccc(O)c(C(=O)Nc2cc(C(=O)O)ccc2Cl)c1 [Compound 600494, 3-{[2-Hydroxy-5-(tert-butyl)benzene]amido}-4chloro-benzoic acid]","Remaining Percentage of 60 min (%), Human, Tested Sample",[1]; [7],99.4%
same,"Remaining Percentage of 60 min (%), Human, Negative Control",[1]; [8],92.8%
same,"Remaining Percentage of 60 min (%), Human, Heat-inactivated Control",[1]; [9],114.2%
same,Mean Revertant Colony Counts TA98 SP9+,[2]; 1.5 ug/Well,8.7
same,Mean Revertant Colony Counts TA98 S9-,[2]; 1.5 ug/Well,7.3
same,Mean Revertant Colony Counts TA98 SP9+,[2]; 4 ug/Well,9.3
same,Mean Revertant Colony Counts TA98 S9-,[2]; 4 ug/Well,7.7
same,Mean Revertant Colony Counts TA98 SP9+,[2]; 10 ug/Well,7.7
same,Mean Revertant Colony Counts TA98 S9-,[2]; 10 ug/Well,7.3
same,Mean Revertant Colony Counts TA98 SP9+,[2]; 25 ug/Well,12.0
same,Mean Revertant Colony Counts TA98 S9-,[2]; 25 ug/Well,6.7
same,Mean Revertant Colony Counts TA98 SP9+,[2]; 64 ug/Well,8.0
same,Mean Revertant Colony Counts TA98 S9-,[2]; 64 ug/Well,6.0
same,Mean Revertant Colony Counts TA98 SP9+,[2]; 160 ug/Well,15.7
same,Mean Revertant Colony Counts TA98 S9-,[2]; 160 ug/Well,11.7
same,Mean Revertant Colony Counts TA98 SP9+,[2]; 400 ug/Well,10.3
same,Mean Revertant Colony Counts TA98 S9-,[2]; 400 ug/Well,14.0
same,"fold increase in revertant colonies, TA98",[2]; 400 μg/well in the absence of S9 mix,≥ 2 fold
same,Mean Revertant Colony Counts TA98 SP9+,[2]; 1000 ug/Well,11.3
same,Mean Revertant Colony Counts TA98 S9-,[2]; 1000 ug/Well,10.7
same,IC50,"[3]; PH5CH8 liver cells, 10-point dose response between 1μM and 1.9nM, read-out: IC50 (uM), inhibition of steatotic phenotype in DNL assay",0.004 µM
same,IC50,"[3]; S1 Table. SAR for N-Substituted Phenylbenzamides, read-out: IC50",0.0039 µM
same,Active/Inactive,[3]; S1 Table. SAR for N-Substituted Phenylbenzamides,Active
same,AUC _%Extrap_obs (IV),[4]; IV 1 mg/kg,1.23 +/- 1.05%
same,AUCl ast/D (IV),[4]; IV 1 mg/kg,18200 ± 1190 ng·kg·h/mL/mg
same,V ss_obs,[4]; IV 1 mg/kg,0.13 ± 0.035 L/kg
same,AUC _%Extrap_obs (PO),[4]; PO 5 mg/kg in PBS,3.64 +/-4.73%
same,AUC last / D (PO),[4]; PO 5 mg/kg in PBS,2490 ± 542 ng·kg·h/mL/mg
same,T 1/2 (PO),"[4]; PO 5 mg/kg in PBS, 5 mg/kg",4.6 h and 4.58 ± 2.61 h
same,F (oral bioavailability),[4]; PO 5 mg/kg vs IV 1 mg/kg,14.17 +/- 3.8%
same,half-life,"[4]; Sprague Dawley, rat, plasma, iv, 1 mg/kg, IV 1 mg/kg, read-out: T 1/2 (IV) (converted)",5.36 ± 2 h
same,Cmax,"[4]; Sprague Dawley, rat, plasma, po, 5 mg/kg, PO 5 mg/kg in PBS",1850 ± 674 ng/mL
same,half-life,"[4]; Sprague Dawley, rat, plasma, po, 5 mg/kg, PO 5 mg/kg in PBS, read-out: T 1/2 (PO) (converted)",5.3 h
same,bioavailability,"[4]; Sprague Dawley, rat, plasma, po, 5 mg/kg, PO 5 mg/kg vs IV 1 mg/kg, read-out: F (oral bioavailability)",14%
same,C0,"[4]; rat, plasma, IV 1 mg/kg",22900 ± 4300 ng/mL
same,AUC(0-inf),"[4]; rat, plasma, IV 1 mg/kg, read-out: AUC Inf (IV)",18400 ± 1400 ng·h/mL
same,AUC(0-t),"[4]; rat, plasma, IV 1 mg/kg, read-out: AUC last (IV)",18200 ± 1190 ng·h/mL
same,clearance,"[4]; rat, plasma, IV 1 mg/kg, read-out: Cl_obs",0.91 ± 0.068 mL/min/kg
same,MRT inf,"[4]; rat, plasma, IV 1 mg/kg, read-out: MRT Inf_obs (IV)",2.39 ± 0.69 h
same,Tmax,"[4]; rat, plasma, PO 5 mg/kg in PBS",5.33 ± 2.31 h
same,AUC(0-inf),"[4]; rat, plasma, PO 5 mg/kg in PBS, read-out: AUC Inf (PO)",13000 ± 3520 ng·h/mL
same,AUC(0-t),"[4]; rat, plasma, PO 5 mg/kg in PBS, read-out: AUC last (PO)",12400 ± 2710 ng·h/mL
same,MRT inf,"[4]; rat, plasma, PO 5 mg/kg in PBS, read-out: MRT Inf_obs (PO)",7.89 ± 1.49 h
same,"Remaining Percentage of 60 min (%), Mouse, Tested Sample",[5]; [7],109.6%
same,"Remaining Percentage of 60 min (%), Mouse, Negative Control",[5]; [8],68.9%
same,"Remaining Percentage of 60 min (%), Mouse, Heat-inactivated Control",[5]; [9],98.5%
same,Mean Revertant Colony Counts TA-100 SP9+,[6]; 1.5 ug/Well,20.7
same,Mean Revertant Colony Counts TA-100 S9-,[6]; 1.5 ug/Well,30.0
same,Mean Revertant Colony Counts TA-100 SP9+,[6]; 4 ug/Well,17.3
same,Mean Revertant Colony Counts TA-100 S9-,[6]; 4 ug/Well,27.0
same,Mean Revertant Colony Counts TA-100 SP9+,[6]; 10 ug/Well,18.0
same,Mean Revertant Colony Counts TA-100 S9-,[6]; 10 ug/Well,25.0
same,Mean Revertant Colony Counts TA-100 SP9+,[6]; 25 ug/Well,22.0
same,Mean Revertant Colony Counts TA-100 S9-,[6]; 25 ug/Well,24.0
same,Mean Revertant Colony Counts TA-100 SP9+,[6]; 64 ug/Well,16.3
same,Mean Revertant Colony Counts TA-100 S9-,[6]; 64 ug/Well,33.0
same,Mean Revertant Colony Counts TA-100 SP9+,[6]; 160 ug/Well,21.0
same,Mean Revertant Colony Counts TA-100 S9-,[6]; 160 ug/Well,25.7
same,Mean Revertant Colony Counts TA-100 SP9+,[6]; 400 ug/Well,21.3
same,Mean Revertant Colony Counts TA-100 S9-,[6]; 400 ug/Well,22.3
same,Mean Revertant Colony Counts TA-100 SP9+,[6]; 1000 ug/Well,20.3
same,Mean Revertant Colony Counts TA-100 S9-,[6]; 1000 ug/Well,17.7
same,"fold increase in the mean number of revertant colonies, TA100","[6]; any concentration tested, vs negative control",< 2 fold
